In patent publication US20240327393A1 (SIRONAX LTD., priority 2021, published 2024) one finds EC50 data, which are given here for 35 compounds.

Each structure is given as a SMILES string. Like-named read-outs stand apart in the source and are kept apart here.

This assay has as its system HT-1080 (ATCC, CCL-121) cells. In words: HT-1080 cell viability assay with ferroptosis inducer RSL3 (Cell Titer-Glo). It is filed as cell-based. The conditions noted are these: Homo sapiens, HT-1080 cells treated with RSL3, 3-fold, 10-point dilution, 1.1 μM highest concentration, read-out: EC50 (nM), ferroptosis inhibitory activity. An outline of the steps:
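EC50 was derived by sigmoidal dose-response regression of CellTiter-Glo luminescence viability, expressed relative to untreated wells. Compounds were tested in a ten-point, threefold dilution series (highest 1.1 μM) in the presence of the ferroptosis inducer RSL3. HT-1080 cells had been seeded at 6000 per well and grown overnight first.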
(In general: ATP-based viability assays read luminescence as a measure of living cells.)

Take `Cc1cc(Nc2ccc3c(c2)OCC(=O)N3C)ccc1N1CC(C)OC(C)C1` (centres unmarked) [Compound 52, 7-((4-(2,6-dimethylmorpholino)-3-methylphenyl)amino)-4-methyl-2H-benzo[b][1,4]oxazin-3(4H)-one]: the EC50 (Table 2) is 0.1 to 100 nM. `Cc1cc(N2CC(C)OC(C)C2)ccc1Nc1ccc2c(c1)OCC(=O)N2CCO` (centres unmarked) [Compound 456, 7-((4-(2,6-dimethylmorpholino)-2-methylphenyl)amino)-4-(2-hydroxyethyl)-2H-benzo[b][1,4]oxazin-3(4H)-one]: the EC50 (Table 3) lay in the range of 0.1 to 100 nM. `CCN(CC)c1ccc(Nc2ccc3c(c2)n(C)c(=O)n3C)cc1` [Compound 268, 5-((4-(diethylamino)phenyl)amino)-1,3-dimethyl-1,3-dihydro-2H-benzo[d]imidazol-2-one]: where the note is “Table 2”, the half-maximal effective concentration (EC50) fell in the range of 0.1 to 100 nM. In the case of `Cc1cc(N2CCC(C(F)(F)F)CC2)ccc1Nc1ccc2c(c1)OC(CO)C(=O)N2` (centres unmarked) [Compound 602, 2-(hydroxymethyl)-7-((2-methyl-4-(4-(trifluoromethyl)piperidin-1-yl)phenyl)amino)-2H-benzo[b][1,4]oxazin-3(4H)-one], the EC50 (Table 3) was 0.1 to 100 nM. With `CC1CCC(C)N1c1ccc(Nc2ccc3c(c2)oc(=O)n3C)cc1` (centres unmarked) [Compound 325, 6-((4-(2,5-dimethylpyrrolidin-1-yl)phenyl)amino)-3-methylbenzo[d]oxazol-2(3H)-one], the EC50 (Table 2) is 0.1 to 100 nM. For `CC1CN(c2ncc(Nc3ccc4c(c3)OCC(=O)N4C)cn2)CC(C)O1` (centres unmarked) [Compound 66, 7-((2-(2,6-dimethylmorpholino)pyrimidin-5-yl)amino)-4-methyl-2H-benzo[b][1,4]oxazin-3(4H)-one], the EC50 (Table 2) fell in the range of 0.1 to 100 nM. Take `CN1C(=O)CCOc2cc(Nc3ccc(N4CCC(C(F)(F)F)CC4)cc3)ccc21` [Compound 3, 5-methyl-8-((4-(4-(trifluoromethyl)piperidin-1-yl)phenyl)amino)-2,3-dihydrobenzo[b][1,4]oxazepin-4(5H)-one]: the half-maximal effective concentration (EC50) (Table 2) lay within 0.1 to 100 nM. On the same count and under the same terms, to `NCCc1cc(=O)oc2cc(Nc3ccc(N4CCC(C(F)(F)F)CC4)cc3)ccc12` [Compound 122, 4-(2-aminoethyl)-7-((4-(4-(trifluoromethyl)piperidin-1-yl)phenyl)amino)-2H-chromen-2-one] belongs 0.1 to 100 nM; to `Cc1cc(Nc2ccc3c(c2)OCC(=O)N3C)cnc1N1CC(C)OC(C)C1` (centres unmarked) [Compound 143, 7-((6-(2,6-dimethylmorpholino)-5-methylpyridin-3-yl)amino)-4-methyl-2H-benzo[b][1,4]oxazin-3(4H)-one], 0.1 to 100 nM.

With `Cn1c(=O)n(C)c2cc(Nc3ccc(C(C)(C)C)cc3)ccc21` [Compound 261, 5-((4-(tert-butyl)phenyl)amino)-1,3-dimethyl-1,3-dihydro-2H-benzo[d]imidazol-2-one], under “Table 2”, the EC50 lay in the range of 0.1 to 100 nM. With `CC(=O)N1Cc2ccc(Nc3ccc(N4CCC(F)(F)CC4)cc3)cc2C1` [Compound 166, 1-(5-((4-(4,4-difluoropiperidin-1-yl)phenyl)amino)isoindolin-2-yl) ethan-1-one], the EC50 (Table 2) lay in the range of 0.1 to 100 nM. In the case of `Cc1nc2ccc(Nc3ccc(N4CCC(C(F)(F)F)CC4)cc3)cc2o1` [Compound 323, 2-methyl-N-(4-(4-(trifluoromethyl)piperidin-1-yl)phenyl)benzo[d]oxazol-6-amine], the EC50 (Table 2) is 0.1 to 100 nM. Still for that read-out and setting: in the case of `CC(C)(C)c1ccc(Nc2ccc3c(c2)OCC(=O)N3CCO)cc1` [Compound 82, 7-((4-(tert-butyl)phenyl)amino)-4-(2-hydroxyethyl)-2H-benzo[b][1,4]oxazin-3(4H)-one] it was 0.1 to 100 nM. `Cc1cc(N2CCC(C(F)(F)F)CC2)ccc1Nc1ccc2c(c1)NCCC(=O)N2` [Compound 643, 7-((2-methyl-4-(4-(trifluoromethyl)piperidin-1-yl)phenyl)amino)-1,3,4,5-tetrahydro-2H-benzo[b][1,4]diazepin-2-one]: under “Table 3”, the EC50 lay within 0.1 to 100 nM. Consider `FC(F)(F)C1CCN(c2ccc(Nc3ccc4nc[nH]c4c3)cc2)CC1` [Compound 357, N-(4-(4-(trifluoromethyl)piperidin-1-yl)phenyl)-1H-benzo[d]imidazol-6-amine], for which the EC50 (Table 2) was in the range of 0.1 to 100 nM.

`CC1CN(c2ccc(Nc3ccc4c(c3)OCC(=O)N4C)cc2)CC(C)O1` (centres unmarked) [Compound 44, 7-((4-(2,6-dimethylmorpholino)phenyl)amino)-4-methyl-2H-benzo[b][1,4]oxazin-3(4H)-one]: the EC50 (Table 2) was in the range of 0.1 to 100 nM.

Take `Cc1cc(Nc2ccc3c(c2)OCC(=O)N3)ccc1N1CCC(C(F)(F)F)CC1` [Compound 101, 7-((3-methyl-4-(4-(trifluoromethyl)piperidin-1-yl)phenyl)amino)-2H-benzo[b][1,4]oxazin-3(4H)-one]: the concentration giving a half-maximal response (EC50) (Table 2) was 100 to 1000 nM. As for `CN1Cc2cc(Nc3ccc(N4CCCCC4)c(Cl)c3)ccc2C1=O` [Compound 225, 5-((3-chloro-4-(piperidin-1-yl)phenyl)amino)-2-methylisoindolin-1-one], under “Table 2”, the half-maximal effective concentration (EC50) is 0.1 to 100 nM. As for `NC(=O)NCCn1cc2cc(Nc3ccc(N4CCC(C(F)(F)F)CC4)cc3)ccc2n1` [Compound 419, 1-(2-(5-((4-(4-(trifluoromethyl)piperidin-1-yl)phenyl)amino)-2H-indazol-2-yl)ethyl)urea], the EC50 (Table 2) was in the range of 0.1 to 100 nM.

For the compound `COc1nc(N2CCC(C(F)(F)F)CC2)ccc1Nc1ccc2c(c1)n(C)c(=O)n2C` [Compound 377, 5-((2-methoxy-6-(4-(trifluoromethyl)piperidin-1-yl)pyridin-3-yl)amino)-1,3-dimethyl-1,3-dihydro-2H-benzo[d]imidazol-2-one], the EC50 (Table 2) was in the range of 0.1 to 100 nM. As for `Cc1c(Nc2ccc(N3CCC(C(F)(F)F)CC3)cc2)ccc2c1OCC(=O)N2` [Compound 568, 8-methyl-7-((4-(4-(trifluoromethyl)piperidin-1-yl)phenyl)amino)-2H-benzo[b] [1,4] oxazin-3(4H)-one], the EC50 (Table 3) is 0.1 to 100 nM.

For the compound `O=C1c2ccc(Nc3ccc(N4CCC(C(F)(F)F)CC4)cc3)cc2CN1Cc1ccccc1` [Compound 199, 2-benzyl-5-((4-(4-(trifluoromethyl)piperidin-1-yl)phenyl)amino) isoindolin-1-one], the EC50 (Table 2) is 0.1 to 100 nM. Turning to `Cc1cc(N2CCN(CC(F)(F)F)[C@@H](C)C2)ccc1Nc1ccc2c(c1)OCC(=O)N2` [Compound 580, (S)-7-((2-methyl-4-(3-methyl-4-(2,2,2-trifluoroethyl)piperazin-1-yl)phenyl)amino)-2H-benzo[b][1,4]oxazin-3(4H)-one], the EC50 (Table 3) is 0.1 to 100 nM.

On to `Cc1cc(N2CCC(C(F)(F)F)CC2)ccc1Nc1ccc2c(c1)COCC(=O)N2` [Compound 650, 7-((2-methyl-4-(4-(trifluoromethyl)piperidin-1-yl)phenyl)amino)-1,5-dihydrobenzo[e][1,4]oxazepin-2(3H)-one], for which the EC50 (Table 3) is 0.1 to 100 nM. Consider `Cc1cc2c(C)cc(=O)oc2cc1Nc1ccc(N2CCC(C(F)(F)F)CC2)cc1` [Compound 126, 4,6-dimethyl-7-((4-(4-(trifluoromethyl)piperidin-1-yl)phenyl)amino)-2H-chromen-2-one], for which the EC50 (Table 2) is 0.1 to 100 nM. With `CNCCN1C(=O)COc2cc(Nc3ccc(N4CC(C)OC(C)C4)c(C)c3)ccc21` (centres unmarked) [Compound 62, 7-((4-(2,6-dimethylmorpholino)-3-methylphenyl)amino)-4-(2-(methylamino)ethyl)-2H-benzo[b][1,4]oxazin-3(4H)-one], the concentration giving a half-maximal response (EC50) (Table 2) lay within 0.1 to 100 nM. For the compound `Cc1cc(N2CCC(C(F)(F)F)CC2)ccc1Nc1ccc2c(c1)OCC(O)C(=O)N2` (centres unmarked) [Compound 646, 3-hydroxy-8-((2-methyl-4-(4-(trifluoromethyl)piperidin-1-yl)phenyl)amino)-2,3-dihydrobenzo[b][1,4]oxazepin-4(5H)-one], the EC50 (Table 3) lay within 0.1 to 100 nM. Turning to `NC(=O)NCCN1C(=O)COc2cc(Nc3ccc(N4CCC(C(F)(F)F)CC4)cc3)ccc21` [Compound 40, 1-(2-(3-oxo-7-((4-(4-(trifluoromethyl)piperidin-1-yl)phenyl)amino)-2,3-dihydro-4H-benzo[b][1,4]oxazin-4-yl)ethyl)urea], the EC50 (Table 2) was 0.1 to 100 nM. As to `CC[C@@H]1CN(c2ccc(Nc3ccc4c(c3)OCC(=O)N4)c(C)n2)C[C@H](CC)O1` [Compound 499, 7-((6-((2S,6R)-2,6-diethylmorpholino)-2-methylpyridin-3-yl)amino)-2H-benzo[b][1,4]oxazin-3(4H)-one], the EC50 (Table 3) is 0.1 to 100 nM.

Regarding `CCN1C(=O)COc2cc(Nc3ccc(N4CCC(C(F)(F)F)CC4)cc3)ccc21` [Compound 16, 4-ethyl-7-((4-(4-(trifluoromethyl)piperidin-1-yl)phenyl)amino)-2H-benzo[b][1,4]oxazin-3(4H)-one], under “Table 2”, the EC50 is 0.1 to 100 nM.

Regarding `Cc1cc(N2CCC(C(F)(F)F)CC2)ccc1Nc1ccc2c(c1)OCCC(=O)N2` [Compound 533], the 50% effective concentration (EC50) (Table 3) was 0.1 to 100 nM.

On to `NC(=O)CCCN1C(=O)COc2cc(Nc3ccc(N4CCC(C(F)(F)F)CC4)cc3)ccc21` [Compound 46, 4-(3-oxo-7-((4-(4-(trifluoromethyl)piperidin-1-yl)phenyl)amino)-2,3-dihydro-4H-benzo[b][1,4]oxazin-4-yl)butanamide], for which, under “Table 2”, the EC50 lay within 0.1 to 100 nM.

Turning to `Cc1cc(N2CC(O)(C(F)(F)F)C2)ccc1Nc1ccc2c(c1)ncn2C` [Compound 651, 1-[3-methyl-4-[(1-methylbenzimidazol-5-yl)amino]phenyl]-3-(trifluoromethyl)azetidin-3-ol], the EC50 (Table 3) is 0.1 to 100 nM.

As to `CC(=O)N1CCc2cc(Nc3ccccc3)ccc2C1` [Compound 106, 1-(6-(phenylamino)-3,4-dihydroisoquinolin-2(1H)-yl)ethan-1-one], the EC50 (Table 2) lay within 0.1 to 100 nM. Regarding `CCC1CN(c2ccc(Nc3ccc4c(c3)CNC(=O)N4)c(C)n2)CCO1` (centres unmarked) [Compound 573, 6-{[6-(2-ethylmorpholin-4-yl)-2-methylpyridin-3-yl]amino}-3,4-dihydro-1H-quinazolin-2-one], where the note is “Table 3”, the EC50 lay within 0.1 to 100 nM.

One may read the EC50 as the concentration giving half of the maximal effect.
